Among the data in BindingDB's records for doi:10.1016/j.bmc.2004.08.050 (Yamanouchi Pharmaceutical, 2004) are IC50 values, retold here.

Common to all, as to assay: HIV-1 RT Assay
For assay [1], the target named is T1, Gag-Pol polyprotein [588-1127,Y768C]/[588-1147,Y768C] (Human immunodeficiency virus 1, UniProt P04585, Y768C).
T1 construct: 588-1127; 588-1147

In assay [2] the target is T2, Gag-Pol polyprotein [588-1027,K690N]/[588-1147,K690N] (Human immunodeficiency virus 1, UniProt P04585, K690N).
T2 construct: 588-1027; 588-1147

Assay [3] concerns the target T3, Gag-Pol polyprotein [588-1027]/[588-1147] (Human immunodeficiency virus 1, UniProt P04585).
T3 construct: 588-1027; 588-1147

For `CC(C)c1s/c(=N\S(=O)(=O)c2cccc([N+](=O)[O-])c2)n(C)c1Cl` [thiazolidenebenzenesulfonamide deriv. 17k], the IC50 in assay [1] amounted to 0.13 µM; in assay [2], 6.9 µM; in assay [3], 0.077 µM.

`C=Cc1s/c(=N\S(=O)(=O)c2cccc([N+](=O)[O-])c2)n(C)c1C` [N-(3,4-Dimethyl-5-vinyl-1,3-thiazol-2(3H)-ylidene)-3-nitrobenzenesulfonamide]: the IC50 in assay [1] came out at 9.6 µM; in assay [2], 6.2 µM; in assay [3], 0.15 µM.

As for `CC(C)c1cn(C)/c(=N/S(=O)(=O)c2cccc([N+](=O)[O-])c2)s1` [N-[(2Z)-3-methyl-5-(propan-2-yl)-2,3-dihydro-1,3-thiazol-2-ylidene]-3-nitrobenzene-1-sulfonamide], the values for the IC50 in assay [1], in assay [2] and in assay [3] were 0.7 µM, more than 50 µM and 0.6 µM, respectively.

Take `CC(=O)c1sc(=NS(=O)(=O)c2cccc([N+](=O)[O-])c2)n(C)c1C` [N-[(2Z)-5-acetyl-3,4-dimethyl-2,3-dihydro-1,3-thiazol-2-ylidene]-3-nitrobenzene-1-sulfonamide]: the IC50 in assay [1], in assay [2] and in assay [3] was more than 50 µM each time.

As for `CC(C)c1s/c(=N\S(=O)(=O)c2cccc([N+](=O)[O-])c2)n(C)c1C(F)(F)F` [N-[(2Z)-3-methyl-5-(propan-2-yl)-4-(trifluoromethyl)-2,3-dihydro-1,3-thiazol-2-ylidene]-3-nitrobenzene-1-sulfonamide], the IC50 worked out at 0.26 µM in assay [1], 42 µM in assay [2] and 0.6 µM in assay [3].

With `CCn1c(C)c(C(C)(C)C)s/c1=N\S(=O)(=O)c1cccc([N+](=O)[O-])c1` [N-[(2Z)-5-tert-butyl-3-ethyl-4-methyl-2,3-dihydro-1,3-thiazol-2-ylidene]-3-nitrobenzene-1-sulfonamide], the IC50 in assay [1] is 0.12 µM; in assay [2], more than 50 µM; in assay [3], 6 µM.

For `COC(=O)c1c(C(C)C)s/c(=N\S(=O)(=O)c2cccc([N+](=O)[O-])c2)n1C` [Methyl 5-isopropyl-3-methyl-2-{[(3-nitrophenyl)-sulfonyl]imino}-2,3-dihydro-1,3-thiazole-4-carboxylate], the values for the IC50 in assay [1], in assay [2] and in assay [3] were more than 25 µM, more than 50 µM and more than 50 µM, respectively.

As to `CC(C)Cc1c(C(C)C)s/c(=N\S(=O)(=O)c2cccc([N+](=O)[O-])c2)n1C` [N-(4-Isobutyl-5-isopropyl-3-methyl-1,3-thiazol-2(3H)-ylidene)-3-nitrobenzenesulfonamide], the values for the IC50 in assay [1], in assay [2] and in assay [3] were more than 25 µM, more than 50 µM and more than 50 µM, respectively.

As for `CC(C)c1s/c(=N\S(=O)(=O)c2cccc([N+](=O)[O-])c2)n(C)c1C(N)=O` [5-Isopropyl-3-methyl-2-{[(3-nitrophenyl)sulfonyl]imino}-2,3-dihydro-1,3-thiazole-4-carboxamide], the IC50 in assay [1] is more than 25 µM; in assay [2] it was more than 50 µM; in assay [3] it was 39 µM.

For the molecule `CC(C)c1s/c(=N\S(=O)(=O)c2cccc([N+](=O)[O-])c2)n(C)c1C#N` [N-(4-Cyano-5-isopropyl-3-methyl-1,3-thiazol-2(3H)-ylidene)-3-nitrobenzenesulfonamide], the IC50 in assay [1] was 0.64 µM; in assay [2] it was more than 50 µM; in assay [3] it was 0.62 µM.

As for `Cc1c(C(C)C)s/c(=N\S(=O)(=O)c2cccc([N+](=O)[O-])c2)n1C` [N-(3,4-Dimethyl-5-isopropyl-1,3-thiazol-2(3H)-ylidene)-3-nitrobenzenesulfonamide], the IC50 in assay [1] (pH 8.4, 37 °C) came out at 0.071 µM; in assay [2] (pH 8.4, 37 °C), 20 µM; in assay [3] (pH 8.4, 37 °C) it was 0.34 µM.

On to `Cc1s/c(=N\S(=O)(=O)c2cccc([N+](=O)[O-])c2)n(C)c1C` [3-nitro-N-[(2Z)-3,4,5-trimethyl-2,3-dihydro-1,3-thiazol-2-ylidene]benzene-1-sulfonamide], for which the IC50 in assay [1] (pH 8.4, 37 °C) was 33 µM; in assay [2] (pH 8.4, 37 °C), more than 50 µM; in assay [3] (pH 8.4, 37 °C), 0.97 µM.

Regarding `Cc1c(C(C)(C)C)s/c(=N\S(=O)(=O)c2cccc([N+](=O)[O-])c2)n1C` [3-substituted thiazolidene deriv. 17a], the IC50 in assay [1] (pH 8.4, 37 °C) came to 0.066 µM; in assay [2] (pH 8.4, 37 °C), 13 µM; in assay [3] (pH 8.4, 37 °C) it was 0.27 µM.

`Cc1cs/c(=N\S(=O)(=O)c2cccc([N+](=O)[O-])c2)n1C` [N-[(2Z)-3,4-dimethyl-2,3-dihydro-1,3-thiazol-2-ylidene]-3-nitrobenzene-1-sulfonamide]: the IC50 was more than 50 µM in assay [1] (pH 8.4, 37 °C); more than 50 µM in assay [2] (pH 8.4, 37 °C); more than 50 µM in assay [3] (pH 8.4, 37 °C).

In the case of `Cc1[nH]/c(=N/S(=O)(=O)c2cccc([N+](=O)[O-])c2)sc1C(C)(C)C` [N-(5-tert-Butyl-4-methyl-1,3-thiazol-2-yl)-3-nitrobenzenesulfonamide], the IC50 in assay [1] (pH 8.4, 37 °C) is 0.47 µM; in assay [2] (pH 8.4, 37 °C), 32 µM; in assay [3] (pH 8.4, 37 °C), 0.37 µM.

Take `CCc1s/c(=N\S(=O)(=O)c2cccc([N+](=O)[O-])c2)n(C)c1C` [N-[(2Z)-5-ethyl-3,4-dimethyl-2,3-dihydro-1,3-thiazol-2-ylidene]-3-nitrobenzene-1-sulfonamide]: the IC50 in assay [1] (pH 8.4, 37 °C) turned out to be 0.47 µM; in assay [2] (pH 8.4, 37 °C), 6.3 µM; in assay [3] (pH 8.4, 37 °C), 0.85 µM.

A word on the IC50: it is the point on the concentration scale where inhibition reaches its midpoint. Low values mean greater potency, high ones weaker potency.
